For two compounds, Kd results are on record in article PMC7435853, “L-Malate (−2) Protonation State is Required for Efficient Decarboxylation to L-Lactate by the Malolactic Enzyme of Oenococcus oeni” (Molecules, 2020).

The assay concerns the target T1, malolactic enzyme (MLE) (Oenococcus oeni, UniProt Q04DQ3).
T1 construct: gene OEOE_1564; full-length gene (1626 bp), His-tagged (HisTrap) from pET vector (text says pET28a and pET21a), E. coli BL21(DE3); reported dimer
T1 sequence (Q04DQ3 1-541): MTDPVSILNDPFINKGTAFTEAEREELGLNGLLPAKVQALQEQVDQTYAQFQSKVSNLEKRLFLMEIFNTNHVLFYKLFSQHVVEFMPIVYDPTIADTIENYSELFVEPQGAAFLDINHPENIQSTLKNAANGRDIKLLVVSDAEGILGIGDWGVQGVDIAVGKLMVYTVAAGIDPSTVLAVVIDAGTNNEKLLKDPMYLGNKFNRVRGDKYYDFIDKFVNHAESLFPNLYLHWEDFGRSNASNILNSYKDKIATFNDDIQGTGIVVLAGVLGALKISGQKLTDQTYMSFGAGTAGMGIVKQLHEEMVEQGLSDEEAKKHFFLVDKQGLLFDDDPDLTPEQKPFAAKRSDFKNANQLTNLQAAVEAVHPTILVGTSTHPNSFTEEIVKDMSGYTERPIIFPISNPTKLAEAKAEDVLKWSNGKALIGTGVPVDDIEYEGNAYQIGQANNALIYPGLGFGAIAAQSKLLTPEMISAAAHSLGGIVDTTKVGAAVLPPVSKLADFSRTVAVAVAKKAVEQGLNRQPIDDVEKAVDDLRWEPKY
Description: isothermal titration calorimetry. The assay is classed as binding. From the text:
isothermal titration calorimetry on malolactic enzyme (MLE)
Background: In ITC the heat of successive injections is recorded.

The structures appear in SMILES notation.

In general, Kd refers to the equilibrium constant for the complex coming apart. `O=C(O)C[C@H](O)C(=O)O` [MAL^2−, L-malate (−2)] gave a Kd of 1290 nM.
`O=C(O)C[C@H](O)C(=O)O` [MAL^−, L-malate (−1)] registered a Kd of 3190 nM.
